Reference: US10669272B2, “Substituted naphthyridinone compounds useful as T cell activators” (BRISTOL-MYERS SQUIBB COMPANY, priority 2018, dated 2020)
Counter-ions that a name gives are not always drawn. Like-named read-outs stand apart in the source and are kept apart here.

Experiments:
human DGKα = biological target: T1, human DGKα (Homo sapiens, UniProt P23743); experiment: DGKα LIPGLO assay (extruded liposome substrate), in vitro DGK inhibition; assay type: biochemical; settings: liposome (LIPGLO) assay; read-out: DGKa LIPGLO IC50
T1 construct: TVMV protease cleavage site (C); Hexa-His (C); made in house; host or cells: Sf9 insect cells (baculovirus, Bac-to-Bac)

human DGKζ = biological target: T2, human DGKζ (Homo sapiens, UniProt Q13574); experiment: DGKζ LIPGLO assay (extruded liposome substrate), in vitro DGK inhibition; assay type: biochemical; settings: liposome (LIPGLO) assay; read-out: DGKz LIPGLO IC50
T2 construct: TVMV protease cleavage site (C); Hexa-His (C); made in house; host or cells: Sf9 insect cells (baculovirus, Bac-to-Bac)

Human venous whole blood = experiment: Human whole blood IFN-γ assay; assay type: cell-based; settings: human whole blood, normalized to 3 μM reference compound with anti-CD3 plus anti-CD28 as 100% activation, read-out: INFg Whole Blood Normalized Agonist EC50;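 also: blood from healthy donors exposed to compound for 1 h before stimulation with anti-CD3 and anti-CD28 at 1 µg/mL each, IFN-γ quantified in supernatant by AlphaLISA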

T1 sequence (P23743 with tags, fused parts or gaps): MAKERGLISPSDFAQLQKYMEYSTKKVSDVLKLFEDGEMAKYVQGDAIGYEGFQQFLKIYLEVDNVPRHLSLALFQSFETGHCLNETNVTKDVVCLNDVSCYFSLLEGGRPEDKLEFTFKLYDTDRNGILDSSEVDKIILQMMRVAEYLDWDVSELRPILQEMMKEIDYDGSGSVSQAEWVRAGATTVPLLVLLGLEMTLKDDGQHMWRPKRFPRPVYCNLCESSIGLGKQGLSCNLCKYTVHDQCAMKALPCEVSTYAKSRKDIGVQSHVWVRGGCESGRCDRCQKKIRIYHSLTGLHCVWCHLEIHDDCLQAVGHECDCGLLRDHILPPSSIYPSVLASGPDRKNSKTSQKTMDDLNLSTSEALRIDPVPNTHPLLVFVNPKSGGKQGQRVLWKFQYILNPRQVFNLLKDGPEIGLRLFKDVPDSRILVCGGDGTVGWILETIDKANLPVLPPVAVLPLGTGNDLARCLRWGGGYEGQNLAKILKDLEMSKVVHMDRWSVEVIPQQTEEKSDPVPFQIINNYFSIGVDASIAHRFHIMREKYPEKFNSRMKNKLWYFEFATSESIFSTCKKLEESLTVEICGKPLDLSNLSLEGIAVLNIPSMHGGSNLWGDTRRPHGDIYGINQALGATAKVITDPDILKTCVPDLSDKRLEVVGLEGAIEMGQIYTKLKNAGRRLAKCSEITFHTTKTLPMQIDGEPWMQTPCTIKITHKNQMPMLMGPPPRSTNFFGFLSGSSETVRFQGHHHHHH
T2 sequence (Q13574 with tags, fused parts or gaps isoform Q13574-4): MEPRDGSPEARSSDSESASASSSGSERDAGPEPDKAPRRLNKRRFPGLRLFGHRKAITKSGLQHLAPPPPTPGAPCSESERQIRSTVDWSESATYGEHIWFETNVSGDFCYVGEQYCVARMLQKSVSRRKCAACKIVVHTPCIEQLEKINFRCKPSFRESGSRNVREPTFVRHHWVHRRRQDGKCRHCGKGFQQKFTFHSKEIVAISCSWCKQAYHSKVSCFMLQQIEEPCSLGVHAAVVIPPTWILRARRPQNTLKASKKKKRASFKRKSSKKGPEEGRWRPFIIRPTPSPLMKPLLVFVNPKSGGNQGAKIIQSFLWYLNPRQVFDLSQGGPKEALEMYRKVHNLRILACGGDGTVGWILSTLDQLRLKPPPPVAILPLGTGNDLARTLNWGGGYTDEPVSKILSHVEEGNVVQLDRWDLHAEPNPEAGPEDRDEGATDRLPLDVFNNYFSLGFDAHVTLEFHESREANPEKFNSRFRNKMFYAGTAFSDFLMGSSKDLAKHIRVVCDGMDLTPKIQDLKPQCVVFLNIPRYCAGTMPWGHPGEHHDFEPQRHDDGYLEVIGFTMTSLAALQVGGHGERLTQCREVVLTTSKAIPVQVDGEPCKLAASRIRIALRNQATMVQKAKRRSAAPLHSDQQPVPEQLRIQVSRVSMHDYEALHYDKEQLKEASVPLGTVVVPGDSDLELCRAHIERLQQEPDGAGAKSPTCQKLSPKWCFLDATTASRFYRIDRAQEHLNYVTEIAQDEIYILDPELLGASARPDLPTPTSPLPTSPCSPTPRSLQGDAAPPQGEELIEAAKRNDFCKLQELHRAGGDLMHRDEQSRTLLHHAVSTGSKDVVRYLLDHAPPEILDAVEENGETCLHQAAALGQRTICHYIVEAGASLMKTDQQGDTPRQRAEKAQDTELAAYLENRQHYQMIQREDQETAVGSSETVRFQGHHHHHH

IC50 (human DGKα) [nM] | IC50 (human DGKζ) [nM] | Structure (SMILES) | EC50 (Human venous whole blood) [nM] | EC50 (Human venous whole blood; TFA) [nM] | EC50 (Human venous whole blood; Homo sapiens, 24 h) [nM]
3600 | 4500 | C[C@@H]1CN(c2c(F)c(=O)n(C)c3ccc(C#N)nc23)[C@@H](C)CN1C(c1ccc(F)cc1)c1c(F)cccc1F (single isomer, unassigned) [Example 329] | 13000 |  | 
260 | 500 | C[C@@H]1CN(c2c(F)c(=O)n(C)c3ccc(C#N)nc23)[C@@H](C)CN1C(c1ccc(F)cc1)c1cccc(F)c1 (single isomer, unassigned) [Example 330] | 1200 |  | 
1700 | 1900 | C[C@@H]1CN(c2c(F)c(=O)n(C)c3ccc(C#N)nc23)[C@@H](C)CN1C(c1ccc(F)cc1)c1cccc(F)c1 (single isomer, unassigned) [Example 331] | 20000 |  | 
740 | 230 | C[C@@H]1CN(c2c(F)c(=O)n(C)c3ccc(C#N)nc23)[C@@H](C)CN1C(c1ccc(F)cc1)c1c(F)cccc1F (single isomer, unassigned) [Example 336] | 2000 |  | 
320 | 220 | CC[C@@H]1CN(c2cc(=O)n(C)c3ccc(C#N)nc23)[C@@H](C)CN1C(c1ccc(OC(F)(F)F)cc1)c1ccccn1 (single isomer, unassigned) [Example 340] |  |  | 80
69 | 550 | CC[C@@H]1CN(c2cc(=O)n(C)c3ccc(C#N)nc23)[C@@H](C)CN1C(c1ccc(OC(F)(F)F)cc1)c1ccccn1 (single isomer, unassigned) [Example 341] | 120 |  | 
4000 | 33000 | CC(c1ccc(C(F)(F)F)cc1)N1C[C@@H](C)N(c2cc(=O)n(C)c3ccc(C#N)nc23)C[C@@H]1C (single isomer, unassigned) [Example 345] | 6800 |  | 
1300 | 1500 | CC(c1ccc(C(F)(F)F)cc1)N1C[C@@H](C)N(c2cc(=O)n(C)c3ccc(C#N)nc23)C[C@@H]1C (single isomer, unassigned) [Example 346] | 1100 |  | 

Further lines, the compound ahead of its results:

Structure (SMILES) | IC50 (human DGKα) [nM] | IC50 (human DGKζ) [nM] | EC50 (Human venous whole blood) [nM] | EC50 (Human venous whole blood; TFA) [nM] | EC50 (Human venous whole blood; Homo sapiens, 24 h) [nM]
COC(=O)C1CN(c2cc(=O)n(C)c3ccc(C#N)nc23)CCN1C(c1ccc(F)cc1)c1ccc(F)cc1OC (single isomer, unassigned) [Example 70, Methyl 4-(6-cyano-1-methyl-2-oxo-1,2-dihydro-1,5-naphthyridin-4-yl)-1-((4-fluoro-2-methoxyphenyl)(4-fluorophenyl)methyl)piperazine-2-carboxylate] | 220000 | 19000 | 10000 |  | 
COC(=O)C1CN(c2cc(=O)n(C)c3ccc(C#N)nc23)CCN1C(c1ccc(Cl)cc1)c1ccc(Cl)cc1 (single isomer, unassigned) [Example 96, methyl 1-(bis(4-chlorophenyl)methyl)-4-(6-cyano-1-methyl-2-oxo-1,2-dihydro-1,5-naphthyridin-4-yl)piperazine-2-carboxylate] | 240000 | 14000 | 13000 |  | 
Cn1c(=O)cc(N2CCN(C(c3ccc(F)cc3)c3ccc(F)cc3)CC2c2ccccc2)c2nc(C#N)ccc21 (single isomer, unassigned) [Example 155, 8-(4-(bis(4-fluorophenyl)methyl)-2-phenylpiperazin-1-yl)-5-methyl-6-oxo-5,6-dihydro-1,5-naphthyridine-2-carbonitrile] | 240000 | 240000 | 20000 |  | 
C[C@@H]1CN(c2cc(=O)n(C)c3ccc(C#N)nc23)[C@@H](C)CN1C(c1ccccc1)c1c(F)cccc1F (single isomer, unassigned) [Example 273, TFA] | 3800 | 15000 |  | 7100 | 
Cc1ccc(C(c2ccc(C#N)cc2)N2C[C@H](C)N(c3cc(=O)n(C)c4ccc(C#N)nc34)C[C@H]2C)cc1 (single isomer, unassigned) [Example 310, TFA salt] | 1300 | 1600 |  |  | 1900
C[C@@H]1CN(c2c(C#N)c(=O)n(C)c3ccc(C#N)nc23)CCN1C(c1ccc(Cl)cc1)c1ccncn1 (single isomer, unassigned) [Example 319] | 2200 | 6600 |  |  | 1600
